The subject of assay [1] is intracellular F-2,6-P2 levels. The assay is described as follows: Intracellular F-2,6-P2 quantification (van Schaftingen assay). The assay is classed as cell-based. The settings on record: pancreatic, gastric and colon cancer cell lines. The method, then:
Quantification of F-2,6-P2 was performed as described by Van Schaftingen et al.[34]. The assay is based on the potent activation of pyrophosphate-dependent phosphofructokinase-1 (PPi-PFK) from potato tubers by F-2,6-P2. The use of a series of coupled enzymes leads to a consumption of nicotinamide adenine dinucleotide (NADH) that can be followed spectrophotometrically. PANC-1, NUGC-3, SW620, or MIA PaCa-2 cells were seeded at a density of 2.5 × 10^4–3.5 × 10^4 cells per well (96-well, CLS3595, Sigma-Aldrich) and incubated overnight at 37 °C and 5% CO2. […] Plates stored at −20 °C were thawed and the F-2,6-P2 quantification was initiated by transferring 40 µL from each well of the NUNC plate to the corresponding position in a transparent 96-well SpectraPlate-MB (PerkinElmer). In order to ensure that all F-2,6-P2 measured values were within the linear range of response (between 0 and 1 nM final concentration of F-2,6-P2[34]), the same sample volume of an in-house produced F-2,6-P2 standard was included on each plate. […] The coupled enzymatic reaction was allowed to proceed for 45 min at room temperature and the absorbance at 340 nm was continuously measured every 30 s (SpectraMax plate reader, Molecular Devices). The measured absorbance was proportional to the concentration of NADH, which in turn was proportional to the levels of F-2,6-P2 within the linear range. […]

The target in assay [2] is T1, EGFR (Homo sapiens, UniProt P00533).
T1 construct: purchased DiscoverX (Eurofins) KINOMEscan / scanEDGE, inferred from the naming style
T1 sequence (P00533 25-1210): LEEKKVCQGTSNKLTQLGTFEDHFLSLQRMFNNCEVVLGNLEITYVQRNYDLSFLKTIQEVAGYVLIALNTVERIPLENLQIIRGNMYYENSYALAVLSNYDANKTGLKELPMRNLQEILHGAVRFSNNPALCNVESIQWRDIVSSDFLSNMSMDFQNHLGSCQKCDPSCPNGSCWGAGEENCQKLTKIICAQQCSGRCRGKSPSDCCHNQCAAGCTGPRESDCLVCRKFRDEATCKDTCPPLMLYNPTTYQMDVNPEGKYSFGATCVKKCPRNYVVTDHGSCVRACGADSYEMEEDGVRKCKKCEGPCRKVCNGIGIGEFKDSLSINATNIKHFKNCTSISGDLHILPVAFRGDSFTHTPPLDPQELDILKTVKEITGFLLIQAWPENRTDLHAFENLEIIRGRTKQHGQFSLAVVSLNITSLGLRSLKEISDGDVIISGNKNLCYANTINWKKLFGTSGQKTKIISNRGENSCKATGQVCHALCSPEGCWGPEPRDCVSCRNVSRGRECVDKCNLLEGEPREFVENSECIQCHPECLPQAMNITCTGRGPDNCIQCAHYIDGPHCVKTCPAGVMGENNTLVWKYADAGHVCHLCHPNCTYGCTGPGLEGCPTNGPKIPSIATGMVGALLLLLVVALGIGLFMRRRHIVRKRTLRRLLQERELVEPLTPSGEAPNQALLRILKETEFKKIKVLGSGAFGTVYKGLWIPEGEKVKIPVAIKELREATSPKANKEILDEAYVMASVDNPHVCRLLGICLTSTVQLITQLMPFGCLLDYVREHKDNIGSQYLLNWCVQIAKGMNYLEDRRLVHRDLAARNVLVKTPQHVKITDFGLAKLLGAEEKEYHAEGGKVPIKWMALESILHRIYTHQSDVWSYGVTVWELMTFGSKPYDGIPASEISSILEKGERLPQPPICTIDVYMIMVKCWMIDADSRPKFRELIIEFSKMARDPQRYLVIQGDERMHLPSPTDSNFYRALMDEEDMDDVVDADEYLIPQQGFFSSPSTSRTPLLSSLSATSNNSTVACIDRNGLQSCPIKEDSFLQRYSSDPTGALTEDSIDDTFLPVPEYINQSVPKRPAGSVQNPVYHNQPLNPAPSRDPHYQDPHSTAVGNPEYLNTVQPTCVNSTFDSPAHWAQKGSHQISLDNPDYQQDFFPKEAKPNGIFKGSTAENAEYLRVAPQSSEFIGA
The assay is described as follows: KINOMEscan. In kind it is binding. Conditions: 2000 nM; read-out: Percent Control.

Assay [3] has as its system 97 kinases of the scanEDGE set. The assay is described as follows: DiscoveRx KINOMEscan scanEDGE panel. In kind it is binding. Conditions: 2 µM.
For assay [4], the target named is PFKFB3 (Homo sapiens, UniProt Q16875). The assay is described as follows: ADP-Glo kinase activity assay, PFKFB3. The assay is classed as biochemical. The method, then: The kinase activity of the bi-functional enzyme was quantified based on the production of ADP and F-2,6-P2 from ATP by ADP-GloTM Kinase Assay (Promega). The assay was performed in two steps; first, after the kinase reaction, an equal volume of ADP-GloTM Reagent was added to terminate the kinase reaction and deplete the remaining ATP. Second, the Kinase Detection Reagent was added to simultaneously convert ADP to ATP and allow the newly synthesized ATP to be measured using a luciferase/luciferin reaction. The light generated was measured using a luminescence counter (1450 MicroBeta TriLux). The assay was performed in white 384-well plates (OptiPlate, 6007299, PerkinElmer) by consecutive additions of a test compound solution (0.1 µL, serial diluted in DMSO from compound DMSO stock solution and dispensed by acoustic dispensing from UV-star 384-well plate 7360153, VWR), enzyme solution (5 µL) and substrate (fructose-6-phosphate (F6P) and adenosine-5′-triphosphate (ATP)) containing solution (5 µL). […] Four reference dose–response curves, one of them being the QC compound, were included and serial diluted as the test compounds. The final concentrations of all reagents per well were 50 mM Tris–HCl at pH 8.0, 10 mM MgCl2, 5 mM NaPi at pH 8.0, 81.48 nM PFKFB3 or 145 nM PFKFB4, 8 µM ATP, 100 µM F6P (acid treated and then neutralized to remove any contaminating F-2,6-P2[34]), 0.005% Tween-20 and 1 mM dithiothreitol. Enzyme, compounds, and controls were pre-incubated at room temperature for 15 min before the addition of substrate solution. The enzymatic reaction was allowed to proceed for 20 min and the reaction was terminated by the addition of ADP-GloTM Reagent (10 µL) to all wells followed by 40 min incubation at room temperature. […] The inhibitory potency or IC50 values of test compounds on the kinase activity of the enzymes were calculated using a four-parameter model (model 205) in XLfit (IDBS ActivityBase XE Runner).
Chain of PFKFB3 (Q16875 whole entry): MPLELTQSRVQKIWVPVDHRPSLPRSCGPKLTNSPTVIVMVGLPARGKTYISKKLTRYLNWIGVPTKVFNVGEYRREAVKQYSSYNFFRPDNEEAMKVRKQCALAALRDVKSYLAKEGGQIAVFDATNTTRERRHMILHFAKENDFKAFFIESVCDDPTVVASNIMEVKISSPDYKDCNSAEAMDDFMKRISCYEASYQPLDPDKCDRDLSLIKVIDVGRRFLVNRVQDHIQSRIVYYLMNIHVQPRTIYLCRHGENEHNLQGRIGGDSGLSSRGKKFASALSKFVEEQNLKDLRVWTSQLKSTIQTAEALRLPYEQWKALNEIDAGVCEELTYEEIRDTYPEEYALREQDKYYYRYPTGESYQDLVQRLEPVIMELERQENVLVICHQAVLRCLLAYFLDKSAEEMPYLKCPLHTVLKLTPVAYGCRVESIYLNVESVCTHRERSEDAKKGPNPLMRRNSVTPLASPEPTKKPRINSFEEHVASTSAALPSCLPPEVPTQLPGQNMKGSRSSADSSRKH
(In general: ADP-Glo first removes unused ATP, then detects ADP through luciferase.)

The target in assay [5] is T2, ERK1 (Homo sapiens, UniProt P27361).
T2 construct: purchased DiscoverX (Eurofins) KINOMEscan / scanEDGE, inferred from the naming style
T2 sequence (P27361 whole entry): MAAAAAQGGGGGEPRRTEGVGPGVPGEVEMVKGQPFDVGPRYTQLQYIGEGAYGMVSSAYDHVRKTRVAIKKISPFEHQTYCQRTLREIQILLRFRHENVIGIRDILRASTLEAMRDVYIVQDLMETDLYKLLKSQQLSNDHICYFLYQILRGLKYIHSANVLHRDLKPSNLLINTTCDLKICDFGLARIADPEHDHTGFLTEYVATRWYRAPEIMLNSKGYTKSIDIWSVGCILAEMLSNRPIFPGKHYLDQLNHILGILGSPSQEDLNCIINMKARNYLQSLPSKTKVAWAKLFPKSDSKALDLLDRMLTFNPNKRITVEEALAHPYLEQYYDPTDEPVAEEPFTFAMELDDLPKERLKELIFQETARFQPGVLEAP
The assay is described as follows: KINOMEscan. Conditions: 2000 nM; read-out: Percent Control. The assay is classed as binding.

The target in assay [6] is T3, EPHA2 (Homo sapiens, UniProt P29317).
T3 construct: purchased DiscoverX (Eurofins) KINOMEscan / scanEDGE, inferred from the naming style
T3 sequence (P29317 24-976): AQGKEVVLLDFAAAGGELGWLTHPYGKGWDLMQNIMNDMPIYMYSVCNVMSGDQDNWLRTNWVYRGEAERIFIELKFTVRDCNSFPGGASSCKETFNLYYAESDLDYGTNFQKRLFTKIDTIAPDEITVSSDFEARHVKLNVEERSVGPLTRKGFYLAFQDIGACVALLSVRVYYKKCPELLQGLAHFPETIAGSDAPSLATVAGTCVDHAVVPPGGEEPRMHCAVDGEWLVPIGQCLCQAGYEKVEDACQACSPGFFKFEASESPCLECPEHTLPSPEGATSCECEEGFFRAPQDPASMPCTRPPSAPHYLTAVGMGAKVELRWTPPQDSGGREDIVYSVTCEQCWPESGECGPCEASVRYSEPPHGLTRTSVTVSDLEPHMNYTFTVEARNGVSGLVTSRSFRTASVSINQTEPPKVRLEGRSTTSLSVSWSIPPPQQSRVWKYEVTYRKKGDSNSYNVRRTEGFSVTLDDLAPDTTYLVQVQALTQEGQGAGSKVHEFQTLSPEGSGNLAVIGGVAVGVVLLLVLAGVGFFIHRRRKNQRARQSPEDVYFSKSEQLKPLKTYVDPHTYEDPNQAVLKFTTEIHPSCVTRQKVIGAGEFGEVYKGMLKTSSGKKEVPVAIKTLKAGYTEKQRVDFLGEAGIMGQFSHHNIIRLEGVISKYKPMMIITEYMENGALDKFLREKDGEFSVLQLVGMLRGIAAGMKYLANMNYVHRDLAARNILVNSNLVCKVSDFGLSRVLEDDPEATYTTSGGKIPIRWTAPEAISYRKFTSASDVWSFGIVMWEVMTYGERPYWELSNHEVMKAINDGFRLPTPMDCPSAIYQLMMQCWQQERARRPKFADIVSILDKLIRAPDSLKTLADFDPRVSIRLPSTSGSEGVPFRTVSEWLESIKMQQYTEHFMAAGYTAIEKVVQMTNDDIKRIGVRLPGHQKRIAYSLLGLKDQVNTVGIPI
The assay is described as follows: KINOMEscan. In kind it is binding. Conditions: 2000 nM; read-out: Percent Control.

Assay [7] addresses T4, ACVR1B (Homo sapiens, UniProt P36896).
T4 construct: purchased DiscoverX (Eurofins) KINOMEscan / scanEDGE, inferred from the naming style
The assay is described as follows: KINOMEscan. The settings on record: 2000 nM; read-out: Percent Control. In kind it is binding.

The term IC50 denotes the concentration that inhibits the measured activity by half. A higher IC50 goes with weaker potency in that assay.

T4 sequence (P36896 24-505): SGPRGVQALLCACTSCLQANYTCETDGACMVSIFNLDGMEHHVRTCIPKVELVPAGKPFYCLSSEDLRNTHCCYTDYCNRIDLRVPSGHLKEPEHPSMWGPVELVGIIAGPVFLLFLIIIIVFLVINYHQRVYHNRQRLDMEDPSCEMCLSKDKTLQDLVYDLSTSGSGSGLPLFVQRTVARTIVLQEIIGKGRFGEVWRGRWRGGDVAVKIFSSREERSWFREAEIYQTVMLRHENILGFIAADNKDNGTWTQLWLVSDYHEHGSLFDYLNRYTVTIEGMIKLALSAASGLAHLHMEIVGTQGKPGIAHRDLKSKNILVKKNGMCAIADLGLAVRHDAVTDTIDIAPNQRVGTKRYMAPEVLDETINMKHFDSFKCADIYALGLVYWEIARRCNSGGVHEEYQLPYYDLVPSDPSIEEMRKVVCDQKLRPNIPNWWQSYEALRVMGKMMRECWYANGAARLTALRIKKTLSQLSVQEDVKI

In the case of `O=C(O)c1ccc(NS(=O)(=O)c2cccc(-c3cc(F)ccc3O)c2)cc1O` [KAN0438241, 4-{[(5′-Fluoro-2′-hydroxybiphenyl-3-yl)sulfonyl]amino}-2-hydroxybenzoic acid], the “potency on intracellular F-2,6-P2 levels (in words)” value in assay [1] is “low µM potency”. The remaining binding at 2 µM in assay [2] came to 93%; in assay [5], 99%; in assay [6], 100%; in assay [7], 100%. Moreover, in assay [3], the “binding to the 97 targets of the scanEDGE set” value was “no significant binding”. Besides, the IC50 in assay [4] (ADP-GLO assay) is 190 nM.

With `O=C(OCCO)c1ccc(NS(=O)(=O)c2cccc(-c3cc(F)ccc3O)c2)cc1O` [KAN0438757, 2-Hydroxyethyl-4-{[(5′-fluoro-2′-hydroxybiphenyl-3-yl)sulfonyl]amino}-2-hydroxybenzoate], the “potency on intracellular F-2,6-P2 levels (in words)” value in assay [1] is on record as “sub-µM IC50 values”. Besides, the “binding to the 97 targets of the scanEDGE set” value in assay [3] was “no significant binding”. In assay [4] (in vitro enzymatic assay), the “inhibition of recombinant PFKFB3 kinase activity (in words)” value is “largely inactive”.

The values above are taken from article PMC6155239, “Targeting PFKFB3 radiosensitizes cancer cells and suppresses homologous recombination” (Nature Communications, 2018).
